Measured values reported in patent US8642063B2, “Implantable medical device coatings with biodegradable elastomer and releasable taxane agent” (priority 2008, dated 2014).

Assay: Solubility / elution of paclitaxel solid forms in porcine serum
Format: physicochemical
Conditions: 37° C.
Text: For example, amorphous and dihydrate taxane solid forms may be readily identified and differentiated by visual appearance and elution rates. […] In addition, the presence of different solid forms of the taxane agent in a medical device coating can be identified and quantified by contacting the coating with an elution medium that selectively dissolves one solid form more readily than a second solid form. In solution with an elution medium, such as porcine serum or blood, the presence of the taxane agent can be identified, for example by using ultraviolet (UV) spectroscopy or high pressure liquid chromatography (HPLC). […] Non-solvated solid forms include amorphous or anhydrous solid forms.
The amount of taxane agent released from coating into the elution medium, and the rate of release of the taxane agent from a coating, can be measured by any suitable method that allows for measurement of the release of the taxane agent with a desired level of accuracy and precision. The taxane agent in the coating can be determined by dissolving the coating in a suitable elution medium and subsequently detecting the amount of taxane agent in the elution medium. The taxane agent dissolved in the elution medium can be detected using any suitable technique. […] This correlation involves the linear relationship between optical density (absorbance) and concentration of an absorbing species. […]

CC(=O)O[C@H]1C(=O)[C@@]2(C)[C@H]([C@H](OC(=O)c3ccccc3)[C@]3(O)C[C@H](OC(=O)[C@H](O)[C@@H](NC(=O)c4ccccc4)c4ccccc4)C(C)=C1C3(C)C)[C@]1(OC(C)=O)CO[C@@H]1C[C@@H]2O [dihydrate paclitaxel, paclitaxel]
solubility after 24 hours in porcine serum: less than 40 wt %
